Test results from patent US8349827B2, “Substituted dipyrido-pyrimido-diazepine and benzo-pyrido-pyrimido compounds” (ArQule, Inc., priority 2009, dated 2013).

Experiments:
Assay type in all cases: cell-based
NCI-H1299 = experiment: MTS assay, NCI-H1299 cells; conditions: Homo sapiens, 72 hours
Procedure: (§1) Cells were maintained at 37° C., 5% CO2 in DMEM media supplemented with 1% fetal bovine serum, penicillin/streptomycin and fungizone (Invitrogen). Cells were seeded into 96-well tissue culture plates at 3000 per well and cultured at 37° C. for 18 hours. Test compounds were dissolved and diluted to 300× in DMSO then diluted 1:40 in DMEM. Cells were incubated with test compounds for 72 hours followed by incubation with tetrazolium compound (3-(4,5-dimethylthiazol-2-yl)-5-(3-carboxymethoxyphenyl)-2-(4-sulfophenyl)-2H-tetrazolium, inner salt; MTS) and the electron coupling reagent, phenazine methosulfate (PMS) for 4 hours. […] The ability of compounds to inhibit cell growth in this assay is correlated with the reduction of dehydrogenase enzyme activity found in metabolically active cells. The measurement of the absorbance of the formazan was assessed using an ENVISION™ (Perkin Elmer) microplate reader at 492 nm. The calculated IC50 value is the concentration of the test compound that causes a 50% decrease in the absorbance.

DLD-1 = experiment: MTS assay, DLD-1 cells; conditions: Homo sapiens, 72 hours
Procedure: as §1

PC-3 = experiment: MTS assay, PC-3 cells; conditions: Homo sapiens, 72 hours
Procedure: as §1

KATO III = experiment: MTS assay, KATO III cells; conditions: Homo sapiens, 72 hours
Procedure: as §1

MDA-MB-231 = experiment: MTS assay, MDA-MB-231 cells; conditions: Homo sapiens, 72 hours
Procedure: as §1

PACA-2 = experiment: MTS assay, PACA-2 cells; conditions: 72 hours
Procedure: as §1

SMILES	inhibition at 10 µM (NCI-H1299)	inhibition at 10 µM (DLD-1)	inhibition at 10 µM (PC-3)	inhibition at 10 µM (KATO III)	inhibition at 10 µM (MDA-MB-231)	inhibition at 10 µM (PACA-2)
Clc1cccc(CNc2ncc3c(n2)-c2ccccc2Nc2cnccc2-3)c1 [Example 70, N-(3-chlorobenzyl)-9H-pyrido[3,4-b]pyrimido[5,4-d][1]benzazepin-2-amine]	80 to 100%	80 to 100%	80 to 100%	80 to 100%	80 to 100%	80 to 100%
Fc1ccc(CNc2ncc3c(n2)-c2ccccc2Nc2cnccc2-3)c(F)c1 [Example 69, N-(2,4-difluorobenzyl)-9H-pyrido[3,4-b]pyrimido[5,4-d][1]benzazepin-2-amine]	80 to 100%	80 to 100%	80 to 100%	80 to 100%	80 to 100%	80 to 100%
CC(C)(C)C(=O)N1CCN(c2ncc3c(n2)-c2cccnc2Nc2cnccc2-3)CC1 [Example 58, 2-[4-(2,2-dimethylpropanoyl)piperazin-1-yl]-9H-dipyrido[2,3-b:4′,3′-f]pyrimido[4,5-d]azepine]	–	80 to 100%	50 to 79%	50 to 79%	< 50%	80 to 100%
c1ccc(CNc2ncc3c(n2)-c2cccnc2Nc2cnccc2-3)nc1 [Example 49, N-(pyridin-2-ylmethyl)-9H-dipyrido[2,3-b:4′,3′-f]pyrimido[4,5-d]azepin-2-amine]	80 to 100%	80 to 100%	80 to 100%	80 to 100%	80 to 100%	80 to 100%
CC(=O)N1CCN(c2ncc3c(n2)-c2cccnc2Nc2ccccc2-3)CC1 [Example 68, 2-(4-acetylpiperazin-1-yl)-9H-pyrido[2 ,3-b]pyrimido[4,5-d][1]benzazepine]	50 to 79%	80 to 100%	80 to 100%	80 to 100%	80 to 100%	80 to 100%
CC(=O)N1CCN(c2ncc3c(n2)-c2cccnc2Nc2cnccc2-3)CC1 [Example 57, 2-(4-acetylpiperazin-1-yl)-9H-dipyrido[2,3-b:4′,3′-f]pyrimido[4,5-d]azepine]	80 to 100%	80 to 100%	80 to 100%	80 to 100%	80 to 100%	80 to 100%
